# In PubChem BioAssay (NCI):
#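 Tested at 5 concentrations; 48 h exposure; 96-well plates; endpoints linearly interpolated, else capped at highest concentration. Here, GI50 denotes the concentration required for 50% inhibition of growth. TGI is the concentration that stops growth completely.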
# Key:
# Assay in all cases: inhibition of tumour cell growth, NCI panel, 48 h
# [1] = test system: MDA-MB-435
# [2] = test system: RXF 393 renal
# [3] = test system: SF-539 CNS
# [4] = test system: KM12 colon
# [5] = test system: T-47D breast
# [6] = test system: NCI-H226 lung
# [7] = test system: TK-10 renal
# [8] = test system: HCT-15 colon
# [9] = test system: IGROV1 ovarian
# [10] = test system: CAKI-1 renal
# [11] = test system: M14 melanoma
# [12] = test system: COLO 205 colon
# [13] = test system: OVCAR-8 ovarian
# [14] = test system: DU-145 prostate
# [15] = test system: HT29 colon
# [16] = test system: LOX IMVI melanoma
# [17] = test system: NCI/ADR-RES ovarian
# [18] = test system: K-562 leukemia
# [19] = test system: SF-295 CNS
# [20] = test system: MALME-3M melanoma
# [21] = test system: NCI-H460 lung
# [22] = test system: EKVX NSCLC
# [23] = test system: MDA-MB-231 breast
# [24] = test system: MCF7 breast
# [25] = test system: SK-MEL-5 melanoma
# [26] = test system: ACHN renal
# [27] = test system: A498 renal
# [28] = test system: 786-0 renal
# [29] = test system: HL-60(TB) leukemia
# [30] = test system: A549 NSCLC
# [31] = test system: SN12C renal
# [32] = test system: SK-MEL-28 melanoma
# [33] = test system: UACC-62 melanoma
# [34] = test system: SK-OV-3 ovarian
# [35] = test system: OVCAR-3 ovarian
# [36] = test system: HS 578T breast
# [37] = test system: MDA-MB-468 breast
# [38] = test system: HOP-62 NSCLC
# [39] = test system: PC-3 prostate
# [40] = test system: MOLT-4 leukemia
# [41] = test system: CCRF-CEM leukemia
# [42] = test system: SNB-19 CNS
# [43] = test system: OVCAR-5 ovarian
# [44] = test system: NCI-H23 lung
# [45] = test system: OVCAR-4 ovarian
# [46] = test system: SNB-75 CNS
# [47] = test system: NCI-H522 lung
# [48] = test system: SF-268 CNS
# [49] = test system: BT-549 breast
# [50] = test system: SW-620 colon
# [51] = test system: RPMI-8226 leukemia
# [52] = test system: U251 CNS
# [53] = test system: SK-MEL-2 melanoma
# [54] = test system: HCC-2998 colon
# [55] = test system: HCT-116 colon
# [56] = test system: UO-31 renal
# [57] = test system: UACC-257 melanoma
# [58] = test system: HOP-92 NSCLC
smiles,measurement,setting,value
C=C1CC[C@@H]2[C@]3(C)COC(c4ccccc4)O[C@@H]3CC[C@@]2(C)[C@@H]1C/C=C1/C(=O)OCC1OC(C)=O (stereo partly specified),GI50,[1],10.4 µM
same,TGI,[1],22.5 µM
same,GI50,[2],4.13 µM
same,TGI,[2],17 µM
same,GI50,[3],4.12 µM
same,TGI,[3],14.8 µM
same,GI50,[4],10.6 µM
same,TGI,[4],25.7 µM
same,GI50,[5],10.6 µM
same,TGI,[5],27 µM
same,GI50,[6],4.89 µM
same,TGI,[6],23.1 µM
same,GI50,[7],19 µM
same,TGI,[7],33.4 µM
same,GI50,[8],4.3 µM
same,TGI,[8],16.3 µM
same,GI50,[9],14.4 µM
same,TGI,[9],27.8 µM
same,GI50,[10],12.2 µM
same,TGI,[10],24.7 µM
same,GI50,[11],7.44 µM
same,TGI,[11],20.9 µM
same,GI50,[12],17.5 µM
same,TGI,[12],36.1 µM
same,GI50,[13],3.23 µM
same,TGI,[13],12.3 µM
same,GI50,[14],13.6 µM
same,TGI,[14],27.2 µM
same,GI50,[15],3.63 µM
same,TGI,[15],13.7 µM
same,GI50,[16],1.8 µM
same,TGI,[16],3.61 µM
same,GI50,[17],3.28 µM
same,TGI,[17],11.1 µM
same,GI50,[18],3.72 µM
same,TGI,[18],> 100 µM
same,GI50,[19],13.3 µM
same,TGI,[19],26.1 µM
same,GI50,[20],17.1 µM
same,TGI,[20],33.1 µM
same,GI50,[21],18.9 µM
same,TGI,[21],51.8 µM
same,GI50,[22],10.7 µM
same,TGI,[22],22.6 µM
same,GI50,[23],10.9 µM
same,TGI,[23],23 µM
same,GI50,[24],3.34 µM
same,TGI,[24],15.5 µM
same,GI50,[25],12.2 µM
same,TGI,[25],24.8 µM
same,GI50,[26],8.95 µM
same,TGI,[26],21 µM
same,GI50,[27],19.9 µM
same,TGI,[27],35.7 µM
same,GI50,[28],12.5 µM
same,TGI,[28],25.4 µM
same,GI50,[29],7.37 µM
same,TGI,[29],39.2 µM
same,GI50,[30],15.4 µM
same,TGI,[30],32.3 µM
same,GI50,[31],5.64 µM
same,TGI,[31],18.9 µM
same,GI50,[32],13.9 µM
same,TGI,[32],26.9 µM
same,GI50,[33],7.28 µM
same,TGI,[33],20.3 µM
same,GI50,[34],19.3 µM
same,TGI,[34],34.4 µM
same,GI50,[35],2.74 µM
same,TGI,[35],11.9 µM
same,GI50,[36],20.5 µM
same,TGI,[36],67.4 µM
same,GI50,[37],5.05 µM
same,TGI,[37],19 µM
same,GI50,[38],16 µM
same,TGI,[38],31.2 µM
same,GI50,[39],5.4 µM
same,TGI,[39],20.4 µM
same,GI50,[40],4.43 µM
same,TGI,[40],28.6 µM
same,GI50,[41],2.54 µM
same,TGI,[41],10.9 µM
same,GI50,[42],15.1 µM
same,TGI,[42],28.4 µM
same,GI50,[43],13.4 µM
same,TGI,[43],26.2 µM
same,GI50,[44],15.1 µM
same,TGI,[44],29.1 µM
same,GI50,[45],10.9 µM
same,TGI,[45],25.2 µM
same,GI50,[46],1.77 µM
same,TGI,[46],19.3 µM
same,GI50,[47],10.2 µM
same,TGI,[47],22.8 µM
same,GI50,[48],15.7 µM
same,TGI,[48],34.3 µM
same,GI50,[49],2.67 µM
same,TGI,[49],10 µM
same,GI50,[50],3.04 µM
same,TGI,[50],10.3 µM
same,GI50,[51],2.7 µM
same,TGI,[51],7.85 µM
same,GI50,[52],10.4 µM
same,TGI,[52],24.5 µM
same,GI50,[53],11.1 µM
same,TGI,[53],24.8 µM
same,GI50,[54],13.9 µM
same,TGI,[54],26.9 µM
same,GI50,[55],2.25 µM
same,TGI,[55],5.78 µM
same,GI50,[56],10.4 µM
same,TGI,[56],22.1 µM
same,GI50,[57],14.3 µM
same,TGI,[57],28.7 µM
same,GI50,[58],10.4 µM
same,TGI,[58],23.4 µM
